Reference: PubChem BioAssay (NCI)
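All cell lines were grown in 96-well plates and treated with compound for 48 hours. Definition used: TGI = concentration required for complete inhibition of growth.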

Experiments:
Assay in all cases: NCI tumour cell line growth inhibition, 48 h
786-0 renal = test system: 786-0 renal
A498 renal = test system: A498 renal
A549 NSCLC = test system: A549 NSCLC
ACHN renal = test system: ACHN renal
CAKI-1 renal = test system: CAKI-1 renal
CCRF-CEM leukemia = test system: CCRF-CEM leukemia
COLO 205 colon = test system: COLO 205 colon
DLD-1 colon = test system: DLD-1 colon
DMS 114 small cell lung = test system: DMS 114 small cell lung
DMS 273 small cell lung = test system: DMS 273 small cell lung
EKVX NSCLC = test system: EKVX NSCLC
HCC-2998 colon = test system: HCC-2998 colon
HCT-116 colon = test system: HCT-116 colon
HL-60(TB) leukemia = test system: HL-60(TB) leukemia
HOP-18 NSCLC = test system: HOP-18 NSCLC
HOP-62 NSCLC = test system: HOP-62 NSCLC
HOP-92 NSCLC = test system: HOP-92 NSCLC
HT29 colon = test system: HT29 colon
IGROV1 ovarian = test system: IGROV1 ovarian
K-562 leukemia = test system: K-562 leukemia
KM12 colon = test system: KM12 colon
KM20L2 colon = test system: KM20L2 colon
LOX IMVI melanoma = test system: LOX IMVI melanoma
LXFL 529 NSCLC = test system: LXFL 529 NSCLC
M14 melanoma = test system: M14 melanoma
M19-MEL melanoma = test system: M19-MEL melanoma
MALME-3M melanoma = test system: MALME-3M melanoma
MOLT-4 leukemia = test system: MOLT-4 leukemia
NCI-H226 lung = test system: NCI-H226 lung
NCI-H23 lung = test system: NCI-H23 lung
NCI-H460 lung = test system: NCI-H460 lung
NCI-H522 lung = test system: NCI-H522 lung
OVCAR-3 ovarian = test system: OVCAR-3 ovarian
OVCAR-4 ovarian = test system: OVCAR-4 ovarian
OVCAR-8 ovarian = test system: OVCAR-8 ovarian
RPMI-8226 leukemia = test system: RPMI-8226 leukemia
RXF 393 renal = test system: RXF 393 renal
RXF-631 renal = test system: RXF-631 renal
SF-268 CNS = test system: SF-268 CNS
SF-295 CNS = test system: SF-295 CNS
SF-539 CNS = test system: SF-539 CNS
SK-MEL-28 melanoma = test system: SK-MEL-28 melanoma
SK-MEL-5 melanoma = test system: SK-MEL-5 melanoma
SK-OV-3 ovarian = test system: SK-OV-3 ovarian
SN12C renal = test system: SN12C renal
SNB-19 CNS = test system: SNB-19 CNS
SNB-75 CNS = test system: SNB-75 CNS
SNB-78 CNS = test system: SNB-78 CNS
SR leukemia = test system: SR leukemia
SW-620 colon = test system: SW-620 colon
TK-10 renal = test system: TK-10 renal
U251 CNS = test system: U251 CNS
UACC-257 melanoma = test system: UACC-257 melanoma
UACC-62 melanoma = test system: UACC-62 melanoma
UO-31 renal = test system: UO-31 renal
XF 498 CNS = test system: XF 498 CNS

Measured: TGI

Cc1cc(NS(=O)(=O)c2ccc(NC(=O)c3cccn4c(=O)c5ccccc5nc34)cc2)no1
> 100 µM: all assays above
